Reference: US8658604B2, “Template-fixed beta-hairpin peptidomimetics with protease inhibitory activity” (Polyphor Ltd, priority 2005, dated 2014)
Where a SMILES comes first, the peptide text is derived from it.

Tests used:
[1] = target: Urokinase from human urine (Homo sapiens, UniProt P00749); assay: Enzymatic assay, urokinase
[2] = test system: Tryptase, from human lung; assay: Enzymatic assay, tryptase; conditions: at 100 μM
[3] = target: Chymotrypsin, from human pancreas (Homo sapiens, UniProt P17538); assay: Enzymatic assay, chymotrypsin
[4] = target: T1, Elastase from human neutrophils (Homo sapiens, UniProt P08246); assay: Enzymatic assay, elastase; conditions: Elastase IC50
T1 sequence (P08246 30-267): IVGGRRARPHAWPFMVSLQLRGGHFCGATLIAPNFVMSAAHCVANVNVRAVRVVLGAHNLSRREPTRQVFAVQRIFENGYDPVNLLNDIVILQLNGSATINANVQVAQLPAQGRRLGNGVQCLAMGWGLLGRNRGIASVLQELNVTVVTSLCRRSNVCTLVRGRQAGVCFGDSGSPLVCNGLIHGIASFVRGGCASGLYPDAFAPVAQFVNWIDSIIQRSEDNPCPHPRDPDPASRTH

Chymase, from human skin = target: T2, Chymase, from human skin (Homo sapiens, UniProt P23946); assay: Enzymatic assay, chymase
T2 sequence (P23946 22-247): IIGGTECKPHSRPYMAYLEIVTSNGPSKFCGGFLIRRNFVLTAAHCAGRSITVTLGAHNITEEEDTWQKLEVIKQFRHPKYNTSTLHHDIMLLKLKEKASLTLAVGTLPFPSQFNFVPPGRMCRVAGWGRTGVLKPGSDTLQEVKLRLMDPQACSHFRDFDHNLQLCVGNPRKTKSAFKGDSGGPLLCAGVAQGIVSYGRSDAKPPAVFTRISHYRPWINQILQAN

[5] = target: Coagulation Factor Xa, from uman plasma (Homo sapiens, UniProt P00742); assay: Enzymatic assay, coagulation factor Xa
HELA cells (Acc57) = assay: Cytotoxicity assay (MTT reduction), HELA cells; format: cell-based; conditions: Hela cells
Outline: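 HeLa cells were grown for 24 h, then exposed to peptides at 12.5, 25 and 50 μM in triplicate for 48 h at 37 °C. MTT reduction was read at 595 nm and growth % calculated relative to time-zero wells. LC50 interpolated by linear trend at −50% growth, GI50 at 50%.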

[6] = target: Trypsin, from human pancreas (Homo sapiens, UniProt P07477); assay: Enzymatic assay, trypsin; conditions: at 100 μM
[7] = target: Thrombin, from Human Plasma (Homo sapiens, UniProt P00734); assay: Enzymatic assay, thrombin
[8] = target: T3, CathepsinG, from human neutrophils (Homo sapiens, UniProt P08311); assay: Enzymatic assay, cathepsin G; conditions: Cathepsin G IC50
T3 sequence (P08311 21-244): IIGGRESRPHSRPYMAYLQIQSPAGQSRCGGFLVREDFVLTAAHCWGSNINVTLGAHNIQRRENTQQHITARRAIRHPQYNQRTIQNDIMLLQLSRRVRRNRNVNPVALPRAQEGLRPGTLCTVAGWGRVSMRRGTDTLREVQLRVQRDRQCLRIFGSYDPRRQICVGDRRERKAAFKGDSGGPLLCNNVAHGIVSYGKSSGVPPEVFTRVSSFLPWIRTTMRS

Chymotrypsin, from human pancreas, sequence (P17538 19-263): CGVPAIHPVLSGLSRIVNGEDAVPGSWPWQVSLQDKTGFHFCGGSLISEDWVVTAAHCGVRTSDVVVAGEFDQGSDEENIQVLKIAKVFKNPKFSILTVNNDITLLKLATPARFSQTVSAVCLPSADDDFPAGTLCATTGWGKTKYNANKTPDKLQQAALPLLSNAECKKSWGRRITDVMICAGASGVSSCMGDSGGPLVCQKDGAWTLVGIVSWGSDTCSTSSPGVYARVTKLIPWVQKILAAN
Coagulation Factor Xa, from uman plasma, sequence (P00742 235-488 limits assumed): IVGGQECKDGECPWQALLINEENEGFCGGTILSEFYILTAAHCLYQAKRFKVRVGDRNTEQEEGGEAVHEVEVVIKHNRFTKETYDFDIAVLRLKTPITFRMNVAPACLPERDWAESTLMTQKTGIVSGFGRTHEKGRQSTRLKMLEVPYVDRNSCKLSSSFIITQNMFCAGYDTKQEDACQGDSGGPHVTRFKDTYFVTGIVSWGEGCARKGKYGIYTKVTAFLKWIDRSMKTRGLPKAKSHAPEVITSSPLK
Coagulation Factor Xa, from uman plasma, sequence (P00742 41-179 limits assumed): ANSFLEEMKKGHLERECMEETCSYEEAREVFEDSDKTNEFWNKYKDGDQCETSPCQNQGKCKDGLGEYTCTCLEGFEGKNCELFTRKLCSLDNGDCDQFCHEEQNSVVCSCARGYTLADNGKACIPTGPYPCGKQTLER

SMILES	Urokinase at 100 μM % [1] [%]	Tryptase at 100 μM % [2] [%]	IC50 [3] [µM]	IC50 [4] [µM]	Chymase at 100 μM % (Chymase, from human skin) [%]	FXa at 100 μM % [5] [%]	Cytotoxicity LC50/GI50 Hela cells (HELA cells (Acc57)) [µM]	Trypsin at 100 μM % [6] [%]	Thrombin at 100 μM % [7] [%]	IC50 [8] [µM]
CCCC[C@@H]1NC(=O)[C@@H]2CCCN2C(=O)[C@H]2CCCN2C(=O)[C@H](CC2CCCCC2)NC(=O)[C@@H]2CSSC[C@H](NC1=O)C(=O)N[C@@H]([C@@H](C)O)C(=O)N[C@@H](C)C(=O)N[C@@H](CO)C(=O)N[C@@H]([C@@H](C)CC)C(=O)N1CCC[C@H]1C(=O)N1CCC[C@H]1C(=O)N[C@@H](CCC(N)=O)C(=O)N2 [Ex. 97] (HELM PEPTIDE1{[Nle].C.T.A.S.I.P.P.Q.C.[Cha].[dP].P}$PEPTIDE1,PEPTIDE1,2:R3-10:R3|PEPTIDE1,PEPTIDE1,1:R1-13:R2$$$V2.0)	11.9	0	77.4	0.024	0	4.8	100	9.5	11.6	> 100
CCCC[C@@H]1NC(=O)[C@@H]2CCCN2C(=O)[C@H]2CCCN2C(=O)[C@H](c2ccccc2)NC(=O)[C@@H]2CSSC[C@H](NC1=O)C(=O)N[C@@H]([C@@H](C)O)C(=O)N[C@@H](C)C(=O)N[C@@H](CO)C(=O)N[C@@H]([C@@H](C)CC)C(=O)N1CCC[C@H]1C(=O)N1CCC[C@H]1C(=O)N[C@@H](CCC(N)=O)C(=O)N2 [Ex. 98] (HELM PEPTIDE1{[Nle].C.T.A.S.I.P.P.Q.C.[Phg].[dP].P}$PEPTIDE1,PEPTIDE1,2:R3-10:R3|PEPTIDE1,PEPTIDE1,1:R1-13:R2$$$V2.0)	0	0	38.8	0.021	0	0	78	0	5.2	> 100
CCCC[C@@H]1NC(=O)[C@@H]2CCCN2C(=O)[C@H]2CCCN2C(=O)[C@H](Cc2ccc(O)cc2)NC(=O)[C@@H]2CSSC[C@H](NC1=O)C(=O)N[C@@H]([C@@H](C)O)C(=O)N[C@@H](C)C(=O)N[C@@H](CO)C(=O)N[C@@H]([C@@H](C)CC)C(=O)N1CCC[C@H]1C(=O)N1CC(NC(=O)c3ccccc3)C[C@H]1C(=O)N[C@@H](CCC(N)=O)C(=O)N2 (single isomer, unassigned) [Ex. 88]	96	0.6	4.31	0.018	0	3	73	6.4	0.2	> 100
CCCCCCCC[C@@H]1NC(=O)[C@@H]2CCCN2C(=O)[C@H]2CCCN2C(=O)[C@H](Cc2ccc(O)cc2)NC(=O)[C@@H]2CSSC[C@H](NC1=O)C(=O)N[C@@H]([C@@H](C)O)C(=O)N[C@@H](C)C(=O)N[C@@H](CO)C(=O)N[C@@H]([C@@H](C)CC)C(=O)N1CCC[C@H]1C(=O)N1CCC[C@H]1C(=O)N[C@@H](CCC(N)=O)C(=O)N2 [Ex. 102] (HELM PEPTIDE1{[CCCCCCCC[C@H](N[*:1])C(=O)[*:2]].C.T.A.S.I.P.P.Q.C.Y.[dP].P}$PEPTIDE1,PEPTIDE1,2:R3-10:R3|PEPTIDE1,PEPTIDE1,1:R1-13:R2$$$V2.0)	0.5	0	4.98	0.013	0	0	55	0	1.7	> 100
CCCC[C@@H]1NC(=O)[C@@H]2CCCN2C(=O)[C@H]2CCCN2C(=O)[C@H](Cc2ccccc2Cl)NC(=O)[C@@H]2CSSC[C@H](NC1=O)C(=O)N[C@@H]([C@@H](C)O)C(=O)N[C@@H](C)C(=O)N[C@@H](CO)C(=O)N[C@@H]([C@@H](C)CC)C(=O)N1CCC[C@H]1C(=O)N1CCC[C@H]1C(=O)N[C@@H](CCC(N)=O)C(=O)N2 [Ex. 96] (HELM PEPTIDE1{[Nle].C.T.A.S.I.P.P.Q.C.[O=C([C@H](Cc1ccccc1Cl)N[*:1])[*:2]].[dP].P}$PEPTIDE1,PEPTIDE1,2:R3-10:R3|PEPTIDE1,PEPTIDE1,1:R1-13:R2$$$V2.0)	6.2	0	15.4	0.015	0	0	52	7.5	3.6	21.2
CC[C@H](C)[C@@H]1NC(=O)[C@H](CO)NC(=O)[C@H](C)NC(=O)[C@H]([C@@H](C)O)NC(=O)[C@@H]2CSSC[C@H](NC(=O)[C@H](CCC(N)=O)NC(=O)[C@@H]3CCCN3C(=O)[C@@H]3CCCN3C1=O)C(=O)N[C@@H](Cc1ccc(O)cc1)C(=O)N1CCC[C@@H]1C(=O)N1CCC[C@H]1C(=O)N[C@@H](CCc1ccccc1)C(=O)N2 [Ex. 103] (HELM PEPTIDE1{[O=C([C@H](CCc1ccccc1)N[*:1])[*:2]].C.T.A.S.I.P.P.Q.C.Y.[dP].P}$PEPTIDE1,PEPTIDE1,2:R3-10:R3|PEPTIDE1,PEPTIDE1,1:R1-13:R2$$$V2.0)	9.6	0.6	4.31	0.018	0	3	47	6.4	10.2	> 100
CCCC[C@@H]1NC(=O)[C@@H]2CCCN2C(=O)[C@H]2CCCN2C(=O)[C@H](Cc2ccccc2)NC(=O)[C@@H]2CSSC[C@H](NC1=O)C(=O)N[C@@H]([C@@H](C)O)C(=O)N[C@@H](C)C(=O)N[C@@H](CO)C(=O)N[C@@H]([C@@H](C)CC)C(=O)N1CCC[C@H]1C(=O)N1CCC[C@H]1C(=O)N[C@@H](CCC(N)=O)C(=O)N2 [Ex. 90] (HELM PEPTIDE1{[Nle].C.T.A.S.I.P.P.Q.C.F.[dP].P}$PEPTIDE1,PEPTIDE1,2:R3-10:R3|PEPTIDE1,PEPTIDE1,1:R1-13:R2$$$V2.0)	3.5	5	33.1	0.021	0	5.5	96	5.2	0	67
CCCC[C@@H]1NC(=O)[C@H](Cc2ccccc2)NC(=O)[C@H]2CCCN2C(=O)[C@H](Cc2ccc(O)cc2)NC(=O)[C@@H]2CSSC[C@H](NC1=O)C(=O)N[C@@H]([C@@H](C)O)C(=O)N[C@@H](C)C(=O)N[C@@H](CO)C(=O)N[C@@H]([C@@H](C)CC)C(=O)N1CCC[C@H]1C(=O)N1CCC[C@H]1C(=O)N[C@@H](CCC(N)=O)C(=O)N2 [Ex. 122] (HELM PEPTIDE1{[Nle].C.T.A.S.I.P.P.Q.C.Y.[dP].F}$PEPTIDE1,PEPTIDE1,2:R3-10:R3|PEPTIDE1,PEPTIDE1,1:R1-13:R2$$$V2.0)	11.1	0.2	58	0.018	6.4	19.6	29	19	0	35.1
